This note sets out measurements from US5498632A, “Esters of acyl carnitines with long-chain aliphatic alcohols and pharmaceutical compositions containing same having antibacterial activity” (Sigma-Tau Industrie Farmaceutiche Riunite S.p.A., priority 1992, dated 1996).

Data set [1] is described as follows: Assessment of behaviour and mortality in mice (Irwin's method). Details: species or system mouse (male Crl:(CD-1)(ICR)BR). To be noted: mouse, in vivo; oral, dose 1000, 4 animals/dose. The protocol:
(§1) The assessment of normal behaviour in mice was carried out following S. Irwin's method (Psychopharmacologia, 13, 222 [1968]). This method allows alterations in some behavioural, neurophysiologic and neurovegetative parameters to be detected, which are directly observable by the researcher. The study was conducted using male Crl:(CD-1)(ICR)BR mice (Charles River--Italy) weighing 22-25 g, following oral administration of the compounds suspended in carboxymethylcellulose (0.5% by weight in H2 O) to groups of 4 animals/dose.
(§2) The animals were continously kept under observation for five hours following treatment and twice a day in the subsequent five days. Mortality was also observed during the overall test period.

Data set [2] concerns mice. The description is as above. Also noted: species or system mouse (male Crl:(CD-1)(ICR)BR). To be noted: mouse, in vivo, po. The protocol: as §1, §2
Data set [3] concerns Helicobacter pylori NCTC 11637. In words: MIC in agar (agar dilution). The data set is classed as cell-based. The protocol: (§3) In this experiment the activity of ST 722 and ST 712 against Campylobacter and Helicobacter was investigated.
(§4) Campylobacter fetus ATCC 27374, Campylobacter coli LI 048, Campylobacter jejuni 84-ISS, and Helicobacter pylori NCTC 11637.
(§5) The culture medium was Columbia agar base supplemented with 7% (V/V) defribinated horse blood (DHB) for Campylobacter strains, and the same medium additioned with Vitox (Oxoid) for Helicobacter strain.
(§6) The Campylobacter and Helicobacter strains, preserved at -80° C. in DHB containing 10% (V/V) glycerol, were thawed and grown, in their respective culture medium, in culture flasks, which were incubated for 48 hours at 37° C. in a 10% CO2 atmosphere. After this first growth cycle, the bacteria were allowed to go through a second growth cycle in the same conditions as above.
The bacterial "patina" was then harvested by resuspension in 4-5 ml of Mueller-Hinton broth, the turbidity of which was then assessed according to Mc Farland's criteria (BRAY W. E., Clinical Laboratory Methods, 5th Ed. C. V. MOSBY, St. Louis, Mo. 1957). […]
(§7) With a Steers-type multipoint inoculator (STEERS E., FOLTZ E. L., GRAVES S., RIDEN J., 1959. Inocula-replicating apparatus for routine testing of antibacterial susceptibility to antibiotics. Antibiot. Chemoter. 9: 307-311) 1-μl volumes of the above standardized suspensions were spot-transferred into the wells of a 96-well microtiter plate, which had previously been filled with 0.2 ml/well of Mueller-Hinton agar 5% DHB, containing the test substances at different concentrations.
(§8) The plates was then incubated for 48/72 hours at 37° C. in a 10% CO2 atmosphere.

The subject of data set [4] is Klebsiella pneumoniae (7823). In words: MIC in broth, Gram- strains. Format: cell-based. To be noted: 18 h, read-out: Minimal Inhibitory Concentration (MIC). The protocol:
(§9) MICs were determined by a standard microdilution test, using serial two-fold dilutions of the substances in Mueller-Hinton broth.
(§10) The inoculum was prepared from an overnight culture in Mueller-Hinton broth matching the 0.5 Mc Farland (turbidity) standard (BRAY W. E., Clinical Laboratory Methods, 5th Ed. C. V. MOSBY, St. Louis, Mo. 1957), and was adjusted to a final concentration of 5.0×10^4 colony-forming units/ml.
(§11) Equal volumes (0.1 ml) of both bacterial suspensions and substance solutions were distributed in microtiter plates (Falcon, 96 wells, round bottom), and then placed in a humidified incubator (37° C.) for 18 hours.
(§12) Evaluation of the Minimal Inhibitory Concentration (MIC) in broth of 16 new substances for Gram- bacterial strains.
(§13) The following strains were used: Enterobacter (1), Escherichia (3), Klebsiella (3), Proteus (3); Pseudomonas (2); Salmonella (2), Serratia (1).

The subject of data set [5] is Enterobacter aerogenes (UM). The data set is described as follows: MIC in broth, Gram- strains. The data set is classed as cell-based. To be noted: Klebsiella aerogenes, 18 h, read-out: Minimal Inhibitory Concentration (MIC). The protocol: as §9, §10, §11, §12, §13
Data set [6] concerns Klebsiella oxytoca (552). The data set is described as follows: MIC in broth, Gram- strains. To be noted: 18 h, read-out: Minimal Inhibitory Concentration (MIC). Format: cell-based. As to the method: as §9, §10, §11, §12, §13
The subject of data set [7] is Serratia marcescens (A/1). The data set is described as follows: MIC in broth, Gram- strains. Format: cell-based. To be noted: 18 h, read-out: Minimal Inhibitory Concentration (MIC). The protocol:
as §9, §10, §11, §12, §13

Data set [8] deals with Proteus mirabilis (32). The data set is described as follows: MIC in broth, Gram- strains. The data set is classed as cell-based. To be noted: 18 h, read-out: Minimal Inhibitory Concentration (MIC). As to the method:
as §9, §10, §11, §12, §13

In data set [9] the test system is Proteus vulgaris (UM). In words: MIC in broth, Gram- strains. The data set is classed as cell-based. To be noted: 18 h, read-out: Minimal Inhibitory Concentration (MIC). As to the method: as §9, §10, §11, §12, §13
Data set [10] has as its system Escherichia coli (92 F). In words: MIC in broth, Gram- strains. The data set is classed as cell-based. To be noted: 18 h, E. coli (92 F), read-out: Minimal Inhibitory Concentration (MIC). As to the method: as §9, §10, §11, §12, §13
The test system of data set [11] is Pseudomonas aeruginosa (3 E). In words: MIC in broth, Gram- strains. To be noted: 18 h, read-out: Minimal Inhibitory Concentration (MIC). The data set is classed as cell-based. The protocol: as §9, §10, §11, §12, §13
Data set [12] concerns Escherichia coli (76 F). The data set is described as follows: MIC in broth, Gram- strains. The data set is classed as cell-based. To be noted: 18 h, E. coli (76 F), read-out: Minimal Inhibitory Concentration (MIC). As to the method:
as §9, §10, §11, §12, §13

In data set [13] the test system is Salmonella typhimurium (D.S.). In words: MIC in broth, Gram- strains. The data set is classed as cell-based. To be noted: Salmonella enterica, 18 h, read-out: Minimal Inhibitory Concentration (MIC). The protocol: as §9, §10, §11, §12, §13
For data set [14], the system named is Pseudomonas aeruginosa (10 E). The data set is described as follows: MIC in broth, Gram- strains. The data set is classed as cell-based. To be noted: 18 h, read-out: Minimal Inhibitory Concentration (MIC). As to the method:
as §9, §10, §11, §12, §13

The test system of data set [15] is Campylobacter fetus ATCC 27374. In words: MIC in agar (agar dilution). Format: cell-based. The protocol: as §3, §4, §5, §6
(§14) The bacterial "patina" was then harvested by resuspension in 4-5 ml of Mueller-Hinton broth, the turbidity of which was then assessed according to Mc Farland's criteria (BRAY W. E., Clinical Laboratory Methods, 5th Ed. C. V. MOSBY, St. Louis, Mo. 1957).
(§15) The Helicobacter suspension was adjusted to an approximate concentration of 1.0×10^9 and 1.0×10^8 organisms/ml, while the Campylobacter suspension was adjusted to 1.0×10^7 and 1.0×10^6 organisms/ml.
as §7, §8

The subject of data set [16] is Campylobacter jejuni 84-ISS. The data set is described as follows: MIC in agar (agar dilution). The data set is classed as cell-based. As to the method:
as §3, §4, §5, §6, §14, §15, §7, §8
In general terms: In agar dilution, organisms are placed on agar that contains the substance at set levels.

In data set [17] the test system is Campylobacter coli LI 048. The data set is described as follows: MIC in agar (agar dilution). The data set is classed as cell-based. The protocol:
as §3, §4, §5, §6, §14, §15, §7, §8

In data set [18] the test system is Gram- bacterial strains. The data set is described as follows: Mean MIC in broth and resistant strain number, Gram- strains. To be noted: 18 h, read-out: Mean MIC values. The data set is classed as cell-based. As to the method: as §9, §10, §11, §12, §13
For data set [19], the system named is 4 Gram- bacterial strains. The data set is described as follows: Agar diffusion test of undecyl alcohol. To be noted: absolute (0.05 ml). The data set is classed as cell-based. The protocol:
(§16) To ascertain whether the antimicrobial activity was due to the undecyl alcohol (a possible product from the hydrolysis of the undecyl esters, such as e.g. ST 722 and ST 712), different "in vitro" tests were performed to overcome the difficulties stemming from the insolubility of the undecyl alcohol in the assay medium.
(§17) To circumvent this problem, three different experimental approaches were chosen obtaining the following results:
2) Undecyl alcohol absolute (0.05 ml) in agar seeded with 4 Gram- bacterial strains (Agar diffusion test).

The test system of data set [20] is 7 Gram- bacterial strains. In words: Agar dilution test of undecyl alcohol. The data set is classed as cell-based. To be noted: emulsified in Tween 80, up to 300 mcg/ml. As to the method:
as §16, §17
1) Undecyl alcohol emulsified in Tween 80 and tested up to the concentration of 300 mcg/ml in agar seeded with 7 Gram- bacterial strains (Agar dilution test).

Data set [21] has as its system 4 Gram- bacterial strains and 1 Gram+ bacterial strain. In words: Broth dilution test of undecyl alcohol. The data set is classed as cell-based. To be noted: emulsified in Tween 80, up to 400 mcg/ml. As to the method:
as §16, §17
3) Undecyl alcohol emulsified in Tween 80 and tested up to the concentration of 400 mcg/ml in broth seeded with 4 Gram- bacterial strains and 1 Gram+ bacterial strain (Broth dilution test).
Background: Broth dilution looks for growth in wells or tubes with falling amounts of substance.

For the molecule `CCCCCCCCCCCOC(=O)CC(C[N+](C)(C)C)OC(=O)C(C)C` [ST 712, Isobutyryl-L-Carnitine Undecyl Ester Chloride], in [1], the mortality (usually the percentage killed) at 120 h was 0%. For the same molecule, in [2], the Symptoms result is listed as “NONE”. Moreover, the MIC in data set [3] (Helicobacter pylori, NCTC11637, I = inoculum of 1.0 × 10^5 cells/ml, read-out: MIC in agar) was 3.12 µg/mL; in data set [4], 12.5 µg/mL; in data set [5] it was 25 µg/mL; in [6] it was 12.5 µg/mL; in data set [7] it was 50 µg/mL; in data set [8], over 100 µg/mL. For the same molecule, the MIC in data set [9] was 100 µg/mL; in data set [10], 25 µg/mL; in data set [11], 50 µg/mL; in data set [12], 25 µg/mL; in [13] it was 25 µg/mL; in data set [14], 50 µg/mL. The MIC in data set [15] (Campylobacter fetus, ATCC27374, I = inoculum of 1.0 × 10^3) came to 100 µg/mL; in data set [16] (I = inoculum of 1.0 × 10^3) it was 25 µg/mL; in data set [16] (II = inoculum of 1.0 × 10^4), 50 µg/mL; in data set [17] (Campylobacter coli, LI048, I = inoculum of 1.0 × 10^3), 6.25 µg/mL; in data set [18] it was 36.4 µg/mL. The MIC in agar in [3] (II = inoculum of 1.0 × 10^6 cells/ml) is 3.12 µg/mL; in data set [15] (II = inoculum of 1.0 × 10^4) it was 100 µg/mL; in data set [17] (II = inoculum of 1.0 × 10^4) it was 6.25 µg/mL. Further, in [3] (agar, Helicobacter and Campylobacter strains), the “antibacterial activity for Helicobacter and Campylobacter” value is “possess an antibacterial activity”.
On to `CCCCCCCCCCCO` [Undecyl alcohol, undecyl alcohol], for which the antibacterial activity result in data set [19], in [20] and in data set [21] was “no activity” each time.
